According to ChEMBL document CHEMBL1759880, “A facile, one-pot synthesis, characterization and antimicrobial activity of o-hydroxy anilide derivatives and 1-substituted-1,3-dicyclohexylurea analogs of long chain carboxylic acids” (2011):
Values after ≈ are worked out from the molar mass of the structure shown.

Columns and labels:
[1] = system: Escherichia coli; assay: Antibacterial activity against Escherichia coli ATCC 25922 after 24 hrs by broth dilution technique; format: functional; details: ATCC-25922, 24 h
[2] = system: Escherichia coli; assay: Antibacterial activity against Escherichia coli ATCC 25922 after 24 hrs by disc diffusion method; format: functional
[3] = system: Klebsiella pneumoniae; assay: Antibacterial activity against Klebsiella pneumoniae clinical isolate after 24 hrs by disc diffusion method; format: functional
[4] = system: Streptococcus pyogenes; assay: Antibacterial activity against Streptococcus pyogenes clinical isolate after 24 hrs by disc diffusion method; format: functional
[5] = system: Staphylococcus aureus; assay: Antibacterial activity against Staphylococcus aureus ATCC 25923 after 24 hrs by disc diffusion method; format: functional
[6] = system: Candida albicans; assay: Antifungal activity against Candida albicans after 3 to 4 days by disc diffusion method; format: functional
[7] = system: Aspergillus fumigatus; assay: Antifungal activity against Aspergillus fumigatus after 3 to 4 days by disc diffusion method; format: functional
[8] = system: Candida albicans; assay: Antifungal activity against Candida albicans after 48 hrs by broth dilution technique; format: functional
[9] = system: Aspergillus fumigatus; assay: Antifungal activity against Aspergillus fumigatus after 48 hrs by broth dilution technique; format: functional
[10] = system: Pseudomonas aeruginosa; assay: Antibacterial activity against Pseudomonas aeruginosa ATCC 27853 after 24 hrs by disc diffusion method
[11] = system: Pseudomonas aeruginosa; assay: Antibacterial activity against Pseudomonas aeruginosa ATCC 27853 after 24 hrs by broth dilution technique; details: ATCC-27853, 24 h
[12] = system: Staphylococcus aureus; assay: Antibacterial activity against Staphylococcus aureus ATCC 25923 after 24 hrs by broth dilution technique; format: functional; details: ATCC-25923, 24 h
[13] = system: Streptococcus pyogenes; assay: Antibacterial activity against Streptococcus pyogenes clinical isolate after 24 hrs by broth dilution technique; format: functional
[14] = system: Klebsiella pneumoniae; assay: Antibacterial activity against Klebsiella pneumoniae clinical isolate after 24 hrs by broth dilution technique; format: functional
[15] = system: Talaromyces marneffei; assay: Antifungal activity against Penicillium marneffei after 3 to 4 days by disc diffusion method; format: functional
[16] = system: Trichophyton mentagrophytes; assay: Antifungal activity against Trichophyton mentagrophytes after 3 to 4 days by disc diffusion method; format: functional
[17] = system: Talaromyces marneffei; assay: Antifungal activity against Penicillium marneffei after 48 hrs by broth dilution technique; format: functional
[18] = system: Trichophyton mentagrophytes; assay: Antifungal activity against Trichophyton mentagrophytes after 48 hrs by broth dilution technique; format: functional

SMILES	MIC [1] [µg/mL]	MIC [8] [µg/mL]	MIC [9] [µg/mL]	MIC [11] [µg/mL]	MIC [12] [µg/mL]	MIC [18] [µg/mL]	MBC [1] [µg/mL]	diameter of the inhibition zone (DIZ) [2] [mm]	diameter of the inhibition zone (DIZ) [3] [mm]	diameter of the inhibition zone (DIZ) [4] [mm]	diameter of the inhibition zone (DIZ) [5] [mm]	diameter of the inhibition zone (DIZ) [6] [mm]	diameter of the inhibition zone (DIZ) [7] [mm]	MFC [8] [µg/mL]	MFC [9] [µg/mL]	diameter of the inhibition zone (DIZ) [10] [mm]	MBC [11] [µg/mL]	diameter of the inhibition zone (DIZ) [15] [mm]	diameter of the inhibition zone (DIZ) [16] [mm]	MFC [18] [µg/mL]	other results
CCCCCCCC/C=C\CCCCCCCC(=O)N(C(=O)NC1CCCCC1)C1CCCCC1	100 (≈ 205 µM)	50 (≈ 102 µM)	50 (≈ 102 µM)	100 (≈ 205 µM)			100 (≈ 205 µM)	15.4	12.8	13.5	13.4	13.9	9.9	100 (≈ 205 µM)	100 (≈ 205 µM)	17.2	100 (≈ 205 µM)				
CCCCCCCC/C=C\CCCCCCCC(=O)Nc1ccccc1O	100 (≈ 268 µM)	50 (≈ 134 µM)	25 (≈ 66.9 µM)	100 (≈ 268 µM)	100 (≈ 268 µM)	50 (≈ 134 µM)	100 (≈ 268 µM)	13.2	10.8	11.4	11.1	15.3	11.7	50 (≈ 134 µM)	100 (≈ 268 µM)	15.2	100 (≈ 268 µM)	9.2	8.9	100 (≈ 268 µM)	MBC [12]: 100 µg/mL (≈ 268 µM); MBC [13]: 100 µg/mL (≈ 268 µM); MIC [13]: 50 µg/mL (≈ 134 µM); MFC [17]: 100 µg/mL (≈ 268 µM); MIC [17]: 50 µg/mL (≈ 134 µM)
O=C(O)c1cn(C2CC2)c2cc(N3CCNCC3)c(F)cc2c1=O [CIPROFLOXACIN]				6.5 (≈ 19.6 µM)							22					32					
C=CCCCCCCCCC(=O)Nc1ccccc1O		50 (≈ 182 µM)			100 (≈ 363 µM)			12.7		11.1	10.9	12.5	9.2	100 (≈ 363 µM)		14.3		8.9	8.3		MBC [14]: 100 µg/mL (≈ 363 µM); MIC [14]: 100 µg/mL (≈ 363 µM)
CCCCCCCCCCCCCCCC(=O)Nc1ccccc1O	100 (≈ 288 µM)	50 (≈ 144 µM)	50 (≈ 144 µM)	100 (≈ 288 µM)	50 (≈ 144 µM)	25 (≈ 71.9 µM)	100 (≈ 288 µM)	11.8	10.5	10.6	9.8	13.7	11.6	100 (≈ 288 µM)	100 (≈ 288 µM)	11.5	100 (≈ 288 µM)	9.3	9.8	100 (≈ 288 µM)	MBC [12]: 100 µg/mL (≈ 288 µM); MBC [13]: 100 µg/mL (≈ 288 µM); MIC [13]: 50 µg/mL (≈ 144 µM); MBC [14]: 100 µg/mL (≈ 288 µM); MIC [14]: 50 µg/mL (≈ 144 µM); MFC [17]: 100 µg/mL (≈ 288 µM); MIC [17]: 50 µg/mL (≈ 144 µM)
C=CCCCCCCCCC(=O)N(C(=O)NC1CCCCC1)C1CCCCC1	100 (≈ 256 µM)	50 (≈ 128 µM)		50 (≈ 128 µM)			100 (≈ 256 µM)	10.6				12.1		100 (≈ 256 µM)		12.1	100 (≈ 256 µM)				

More lines, in order of falling MIC [8], values ahead:

MIC [1] [µg/mL]	MIC [8] [µg/mL]	MIC [9] [µg/mL]	MIC [11] [µg/mL]	MIC [12] [µg/mL]	MIC [18] [µg/mL]	SMILES	MBC [1] [µg/mL]	diameter of the inhibition zone (DIZ) [2] [mm]	diameter of the inhibition zone (DIZ) [3] [mm]	diameter of the inhibition zone (DIZ) [4] [mm]	diameter of the inhibition zone (DIZ) [5] [mm]	diameter of the inhibition zone (DIZ) [6] [mm]	diameter of the inhibition zone (DIZ) [7] [mm]	MFC [8] [µg/mL]	MFC [9] [µg/mL]	diameter of the inhibition zone (DIZ) [10] [mm]	MBC [11] [µg/mL]	diameter of the inhibition zone (DIZ) [15] [mm]	diameter of the inhibition zone (DIZ) [16] [mm]	MFC [18] [µg/mL]	other results
50 (≈ 108 µM)	25 (≈ 54 µM)	50 (≈ 108 µM)	25 (≈ 54 µM)	50 (≈ 108 µM)	12.5 (≈ 27 µM)	CCCCCCCCCCCCCCCC(=O)N(C(=O)NC1CCCCC1)C1CCCCC1	100 (≈ 216 µM)	12.3	10.7	11.2	10.1	14.2	12.5	50 (≈ 108 µM)	100 (≈ 216 µM)	14.9	100 (≈ 216 µM)	9.9	10.7	25 (≈ 54 µM)	MBC [12]: 100 µg/mL (≈ 216 µM); MBC [13]: 100 µg/mL (≈ 216 µM); MIC [13]: 50 µg/mL (≈ 108 µM); MBC [14]: 100 µg/mL (≈ 216 µM); MIC [14]: 50 µg/mL (≈ 108 µM); MFC [17]: 100 µg/mL (≈ 216 µM); MIC [17]: 50 µg/mL (≈ 108 µM)
25 (≈ 64.2 µM)	25 (≈ 64.2 µM)	50 (≈ 128 µM)	25 (≈ 64.2 µM)	50 (≈ 128 µM)	50 (≈ 128 µM)	CCCCCC[C@@H](O)C/C=C\CCCCCCCC(=O)Nc1ccccc1O	100 (≈ 257 µM)	17.7	14.7	16.1	15.6	16.2	12.8	50 (≈ 128 µM)	100 (≈ 257 µM)	15.2	100 (≈ 257 µM)	10.1	10.5	100 (≈ 257 µM)	MBC [12]: 100 µg/mL (≈ 257 µM); MBC [13]: 100 µg/mL (≈ 257 µM); MIC [13]: 50 µg/mL (≈ 128 µM); MFC [17]: 100 µg/mL (≈ 257 µM); MIC [17]: 50 µg/mL (≈ 128 µM)
50 (≈ 102 µM)	25 (≈ 50.9 µM)	50 (≈ 102 µM)	25 (≈ 50.9 µM)	50 (≈ 102 µM)	50 (≈ 102 µM)	CCCCCCCCCCCCCCCCCC(=O)N(C(=O)NC1CCCCC1)C1CCCCC1	100 (≈ 204 µM)	13.3	12.7	11.5	11.3	15.1	13.6	50 (≈ 102 µM)	100 (≈ 204 µM)	12.2	100 (≈ 204 µM)	10.5	12.2	100 (≈ 204 µM)	MBC [12]: 100 µg/mL (≈ 204 µM); MBC [13]: 100 µg/mL (≈ 204 µM); MIC [13]: 50 µg/mL (≈ 102 µM); MBC [14]: 100 µg/mL (≈ 204 µM); MIC [14]: 100 µg/mL (≈ 204 µM); MFC [17]: 100 µg/mL (≈ 204 µM); MIC [17]: 50 µg/mL (≈ 102 µM)
50 (≈ 99 µM)	25 (≈ 49.5 µM)	25 (≈ 49.5 µM)	50 (≈ 99 µM)	50 (≈ 99 µM)	25 (≈ 49.5 µM)	CCCCCC[C@@H](O)C/C=C\CCCCCCCC(=O)N(C(=O)NC1CCCCC1)C1CCCCC1	100 (≈ 198 µM)	20.7	17.5	19.1	18.5	18.3	14.9	50 (≈ 99 µM)	100 (≈ 198 µM)	23.2	100 (≈ 198 µM)		13.1	100 (≈ 198 µM)	MBC [12]: 100 µg/mL (≈ 198 µM); MBC [13]: 100 µg/mL (≈ 198 µM); MIC [13]: 50 µg/mL (≈ 99 µM); MBC [14]: 100 µg/mL (≈ 198 µM); MIC [14]: 50 µg/mL (≈ 99 µM)
50 (≈ 99 µM)	12.5 (≈ 24.8 µM)	12.5 (≈ 24.8 µM)	25 (≈ 49.5 µM)	25 (≈ 49.5 µM)	12.5 (≈ 24.8 µM)	CCCCC/C=C\CC[C@H](O)CCCCCCCC(=O)N(C(=O)NC1CCCCC1)C1CCCCC1	100 (≈ 198 µM)	23.4	20.6	20.8	19.5	24.2	21.2	12.5 (≈ 24.8 µM)	25 (≈ 49.5 µM)	27.1	100 (≈ 198 µM)	13.8	18.3	25 (≈ 49.5 µM)	MBC [12]: 50 µg/mL (≈ 99 µM); MBC [13]: 25 µg/mL (≈ 49.5 µM); MIC [13]: 25 µg/mL (≈ 49.5 µM); MBC [14]: 100 µg/mL (≈ 198 µM); MIC [14]: 25 µg/mL (≈ 49.5 µM); MFC [17]: 25 µg/mL (≈ 49.5 µM); MIC [17]: 12.5 µg/mL (≈ 24.8 µM)
25 (≈ 64.2 µM)	12.5 (≈ 32.1 µM)	25 (≈ 64.2 µM)	25 (≈ 64.2 µM)	25 (≈ 64.2 µM)	25 (≈ 64.2 µM)	CCCCC/C=C\CC[C@H](O)CCCCCCCC(=O)Nc1ccccc1O	50 (≈ 128 µM)	20.9	17.8	19.2	18.7	21.4	18.3	25 (≈ 64.2 µM)	50 (≈ 128 µM)	23.4	25 (≈ 64.2 µM)	10.7	15.2	50 (≈ 128 µM)	MBC [12]: 50 µg/mL (≈ 128 µM); MBC [13]: 100 µg/mL (≈ 257 µM); MIC [13]: 50 µg/mL (≈ 128 µM); MBC [14]: 50 µg/mL (≈ 128 µM); MIC [14]: 25 µg/mL (≈ 64.2 µM); MFC [17]: 100 µg/mL (≈ 257 µM); MIC [17]: 25 µg/mL (≈ 64.2 µM)
	6.25 (≈ 17.7 µM)	6.25 (≈ 17.7 µM)			6.25 (≈ 17.7 µM)	COC1=CC(=O)C[C@@H](C)[C@]12Oc1c(Cl)c(OC)cc(OC)c1C2=O [GRISEOFULVIN]						30	27	12.5 (≈ 35.4 µM)	12.5 (≈ 35.4 µM)			20	24	12.5 (≈ 35.4 µM)	MFC [17]: 12.5 µg/mL (≈ 35.4 µM); MIC [17]: 6.25 µg/mL (≈ 17.7 µM)
